Results: US20240197715A1, “PHARMACEUTICAL COMBINATIONS AND USES THEREOF” (NOVARTIS AG, priority 2022, published 2024)

Legend:
[1] = system: IM95 gastric carcinoma cells; assay: IM95 xenograft efficacy in SCID-BEIGE mice; format: in vivo; conditions: Example 17
Description: All animal studies were conducted in accordance to procedures covered by permit number 2275 issued by the Kantonales Veterinäramt Basel-Stadt and strictly adhered to the Eidgenössisches Tierschutzgesetz and the Eidgenössische Tierschutzverordnung. All animals were allowed to adapt for 7 days and housed in a pathogen-controlled environment (5 mice/Type III cage) with access to food and water ad libitum and were identified with transponders.
Compound A was made-up fresh on a weekly basis and kept at 4° C. and protected from light. It was dissolved in 20% Hydroxypropyl-β-Cyclodextrine (HP-β-CD, #H107-100G, SIGMA) in water (#10977023, Invitrogen) and administered p.o. Irradiation was performed with a XRad320™ from Precision X-Ray and an adjustable X-ray Collimator (#XD1601-0000, Precision X-Ray). Only the tumor implanted subcutaneously by using specific shields (#XD1907-2012, Precision X-Ray). 1.0×10^7 IM95 gastric carcinoma cells were implanted subcutaneously in SCID-BEIGE mice (Charles River, Germany). Treatment was initiated when tumors reached 200 mm^3 volume. Efficacy studies and tumor response were measured as above.

[2] = system: SHP-77 (CRL-2195, ATCC) MSS small cell lung carcinoma xenografts; assay: SHP-77 MSS SCLC xenograft efficacy in nude mice; format: in vivo; conditions: irinotecan i.v. once a week
Description: SHP-77 (CRL-2195, ATCC) is a MSS small cell lung carcinoma (SCLC). It was cultured in RPMI 1640 Medium, GlutaMAX™ (#61870036, GIBCO) supplemented with 10% FCS (#2-O-1F30-I, BioConcept). Cells were passaged by washing first with Dulbecco's PBS without Ca^2+/Mg^2+ (#3-05F29-1, AMIMED), trypsinising cells with Trypsin 0.05% in PBS with EDTA (#5-51F00-H, AMIMED), centrifuging in the respective culture media, and splitting cells into fresh media at a ratio of 1:8, 2 times per week.
Athymic nude mice (Charles River, Germany) were allowed to adapt for 7 days upon arrival at the animal facility and housed in a pathogen-controlled environment (5 mice/Type III cage) with access to food and water ad libitum. Animals were identified with transponders. […]
Tumor volumes (TVol), determined from caliper measurements (using the formula I*w2*TT/6) were measured two times per week. Tumor response was quantified by the change in tumor volume (endpoint minus starting value in mm^3) as the T/C. In the case of a tumor regression or to assess the percentage of change in TVol, the tumor response was quantified by the percentage of regression of the starting TVol. The body-weight (BW) of the animal was measured three times per week allowing calculation at any particular time-point relative to the day of initiation of treatment (day 0) of the percentage change in BW (4% BW).

Structure (SMILES): CCc1c(N2CCN(C(=O)c3ncnc(C)c3O)CC2)c(=O)n2nc(C3=CCOCC3)nc2n1CC(=O)Nc1ccc(C(F)(F)F)cc1Cl [Compound A]
- effect on tumor growth ([1]; Compound A 30 mg/kg p.o. qd single agent): stable disease
- duration of response / relapse ([1]; Compound A 30 mg/kg, 5 Gy irradiation): for 21 days but followed by relapse in all tumor-bearing mice

Structure (SMILES): CCc1c2c(nc3ccc(OC(=O)N4CCC(N5CCCCC5)CC4)cc13)-c1cc3c(c(=O)n1C2)COC(=O)[C@]3(O)CC [irinotecan]
- effect on tumor growth of parental SHP77 tumors [2]: no effect
